Measured values from patent US20110152314A1, “USE OF TENATOPRAZOLE FOR THE TREATMENT OF GASTROESOPHAGEAL REFLUX DISEASE” (SIDEM PHARMA, priority 2002, published 2011).

What was measured:
Type in all cases: in vivo, human
[1] = tested on: patients with atypical symptoms of gastroesophageal reflux; test: Clinical treatment of patients with atypical symptoms of gastroesophageal reflux; design: Safety: key: +: moderate; ++: ranging from moderate to highly favorable; +++: highly favorable; settings: oral; on Evolution of symptom: key: +: moderate; ++: ranging from moderate to highly favorable; +++: highly favorable
From the text: (§1) Some clinical examples are given below, which show the effects of treatment on patients suffering from gastroesophageal reflux or dyspepsia, treated by the oral administration of tenatoprazole.

[2] = tested on: patients with symptoms of functional dyspepsia; test: Clinical treatment of patients with symptoms of functional dyspepsia; design: Safety: key: +: moderate; ++: ranging from moderate to highly favorable; +++: highly favorable; settings: oral
From the text: as §1

[3] = tested on: patients suffering from erosive and/or ulcerative type reflux esophagitis; test: Open-labeled studies in reflux esophagitis: endoscopic improvement rating
Protocol: Two open-labeled studies have been conducted in order to evaluate the efficacy and safety of tenatoprazole for gastroesophageal reflux disease. 22 patients in the first study and 24 patients in the second study, of more than 20 years of age, suffering from erosive and/or ulcerative type reflux esophagitis (diagnosed by endoscopy), received tablets containing enteric-coated granules with 10 mg of tenatoprazole.
The tablets were administered orally once a day after breakfast, for a treatment period of 8 weeks, which was continued up to 12 weeks in some cases. Healing was controlled by endoscopic examination 4 weeks and 8 weeks after the first administration, or at the withdrawal from the study, the disease stages were evaluated according to the Savary and Miller classification and the treatment was stopped when healing was confirmed. The condition was evaluated as healed when disappearance of erosion was confirmed.

[4] = patient 26, asthma, link with GERD ++, 12 weeks
[5] = patient 27, dental caries, link with GERD +, 12 weeks
[6] = patient 29, noct. cough, link with GERD +++, 7 weeks
[7] = patient 31, pharyngitis, link with GERD +, 8 weeks
[8] = patient 33, asthma, link with GERD ++, 12 weeks
[9] = patient 34, dysphonia, link with GERD ++, 4 weeks
[10] = patient 34, pharyngitis, link with GERD ++, 8 weeks
[11] = patient 36, dysphonia, link with GERD ++, 5 weeks
[12] = patient 36, noct. cough, link with GERD ++, 8 weeks
[13] = patient 44, pharyngitis, link with GERD +, 4 weeks
[14] = patient 45, pseudo-angina, link with GERD ++, 8 weeks
[15] = patient 49, pseudo-angina, link with GERD ++, 12 weeks
[16] = patient 25, epigastric discomfort, 12 weeks
[17] = patient 28, distension, 4 weeks
[18] = patient 30, nocturnal heartburn, 8 weeks
[19] = patient 34, early satiety, 8 weeks
[20] = patient 36, epigastric discomfort, 8 weeks
[21] = patient 38, epigastric pain, 8 weeks
[22] = patient 38, sensation of gastric fullness, 8 weeks
[23] = patient 39, epigastric pain, 4 weeks
[24] = patient 42, early satiety, 6 weeks
[25] = patient 45, epigastric pain, 6 weeks
[26] = 1st study, 4 weeks, 10 mg tablet orally once a day
[27] = 1st study, 8 weeks, 10 mg tablet orally once a day
[28] = 1st study, final, 10 mg tablet orally once a day
[29] = 2nd study, 4 weeks, 10 mg tablet orally once a day
[30] = 2nd study, 8 weeks, 10 mg tablet orally once a day
[31] = 2nd study, 12 weeks, 10 mg tablet orally once a day
[32] = 2nd study, final, 10 mg tablet orally once a day

COc1ccc2[nH]c([S+]([O-])Cc3ncc(C)c(OC)c3C)nc2n1 (centres unmarked) [tenatoprazole, 5-methoxy-2-[[(4-methoxy-3,5-dimethyl-2-pyridyl)methyl]sulfinyl]imidazo[4,5-b]pyridine]
Evolution of symptom [1, 4]: +++
Safety [1, 4]: +++
Evolution of symptom [1, 5]: 0
Safety [1, 5]: ++
Evolution of symptom [1, 6]: +++
Safety [1, 6]: +++
Evolution of symptom [1, 7]: +
Safety [1, 7]: +++
Evolution of symptom [1, 8]: ++
Safety [1, 8]: +++
Evolution of symptom [1, 9]: ++
Safety [1, 9]: +++
Evolution of symptom [1, 10]: ++
Safety [1, 10]: +++
Evolution of symptom [1, 11]: +++
Safety [1, 11]: +++
Evolution of symptom [1, 12]: +++
Safety [1, 12]: ++
Evolution of symptom [1, 13]: ++
Safety [1, 13]: +++
Evolution of symptom [1, 14]: +++
Safety [1, 14]: +++
Evolution of symptom [1, 15]: +++
Safety [1, 15]: +++
Evolution of symptom [2, 16]: ++
Safety [2, 16]: +++
Evolution of symptom [2, 17]: +
Safety [2, 17]: +++
Evolution of symptom [2, 18]: +++
Safety [2, 18]: +++
Evolution of symptom [2, 19]: +++
Safety [2, 19]: +++
Evolution of symptom ([2]; patient 35, heartburn, 8 weeks): +++
Safety ([2]; patient 35, heartburn, 8 weeks): +++
Evolution of symptom [2, 20]: +++
Safety [2, 20]: ++
Evolution of symptom [2, 21]: +++
Safety [2, 21]: ++
Evolution of symptom [2, 22]: +++
Safety [2, 22]: +++
Evolution of symptom [2, 23]: ++
Safety [2, 23]: ++
Evolution of symptom ([2]; patient 41, heartburn, 6 weeks): +++
Safety ([2]; patient 41, heartburn, 6 weeks): +++
Evolution of symptom [2, 24]: ++
Safety [2, 24]: +++
Evolution of symptom ([2]; patient 44, nausea, 10 weeks): +++
Safety ([2]; patient 44, nausea, 10 weeks): +++
Evolution of symptom [2, 25]: +++
Safety [2, 25]: ++
Evolution of symptom ([2]; patient 47, nausea, 4 weeks): ++
Safety ([2]; patient 47, nausea, 4 weeks): +++
Evolution of symptom ([2]; patient 49, nausea, 8 weeks): ++
Safety ([2]; patient 49, nausea, 8 weeks): +++
Endoscopic improvement rating, patients rated A healed [3, 26]: 20
Endoscopic improvement rating, patients rated B markedly decreased [3, 26]: 1
Endoscopic improvement rating, patients rated C moderately decreased [3, 26]: 0
Endoscopic improvement rating, patients rated D slightly decreased [3, 26]: 0
Endoscopic improvement rating, patients rated E not changed [3, 26]: 1
Endoscopic improvement rating, patients rated F aggravated [3, 26]: 0
Endoscopic improvement rating, patients rated A healed [3, 27]: 21
Endoscopic improvement rating, patients rated B markedly decreased [3, 27]: 0
Endoscopic improvement rating, patients rated C moderately decreased [3, 27]: 0
Endoscopic improvement rating, patients rated D slightly decreased [3, 27]: 0
Endoscopic improvement rating, patients rated E not changed [3, 27]: 1
Endoscopic improvement rating, patients rated F aggravated [3, 27]: 0
Endoscopic improvement rating, patients rated A healed [3, 28]: 21
Endoscopic improvement rating, patients rated B markedly decreased [3, 28]: 0
Endoscopic improvement rating, patients rated C moderately decreased [3, 28]: 0
Endoscopic improvement rating, patients rated D slightly decreased [3, 28]: 0
Endoscopic improvement rating, patients rated E not changed [3, 28]: 1
Endoscopic improvement rating, patients rated F aggravated [3, 28]: 0
Endoscopic improvement rating, patients rated A healed [3, 29]: 23
Endoscopic improvement rating, patients rated B markedly decreased [3, 29]: 2
Endoscopic improvement rating, patients rated C moderately decreased [3, 29]: 0
Endoscopic improvement rating, patients rated D slightly decreased [3, 29]: 0
Endoscopic improvement rating, patients rated E not changed [3, 29]: 0
Endoscopic improvement rating, patients rated F aggravated [3, 29]: 0
Endoscopic improvement rating, patients rated A healed [3, 30]: 24
Endoscopic improvement rating, patients rated B markedly decreased [3, 30]: 0
Endoscopic improvement rating, patients rated C moderately decreased [3, 30]: 0
Endoscopic improvement rating, patients rated D slightly decreased [3, 30]: 0
Endoscopic improvement rating, patients rated E not changed [3, 30]: 0
Endoscopic improvement rating, patients rated F aggravated [3, 30]: 0
Endoscopic improvement rating, patients rated A healed [3, 31]: 24
Endoscopic improvement rating, patients rated B markedly decreased [3, 31]: 0
Endoscopic improvement rating, patients rated C moderately decreased [3, 31]: 0
Endoscopic improvement rating, patients rated D slightly decreased [3, 31]: 0
Endoscopic improvement rating, patients rated E not changed [3, 31]: 0
Endoscopic improvement rating, patients rated F aggravated [3, 31]: 0
Endoscopic improvement rating, patients rated A healed [3, 32]: 24
Endoscopic improvement rating, patients rated B markedly decreased [3, 32]: 0
Endoscopic improvement rating, patients rated C moderately decreased [3, 32]: 0
Endoscopic improvement rating, patients rated D slightly decreased [3, 32]: 0
Endoscopic improvement rating, patients rated E not changed [3, 32]: 0
Endoscopic improvement rating, patients rated F aggravated [3, 32]: 0
patients not healed after 8 weeks treatment ([3]; both studies, 10 mg tablet orally once a day): Only one patient was not healed
efficacy in the treatment of gastroesophageal reflux disease, overall ([3]; both studies, healing obtained with a 4 week treatment): very effective
